# Active and inactive are the calls of the source.
# Columns and labels:
# [1] = HEK-293T viability loss, compound-treated – cell-based, uHTS hits, cytotoxicity control for B/T-cell NF-kB inhibitor project, dose response (AID 489019); format: functional;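 also: IC50 reflects cytotoxicity as loss of cell viability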
# [2] = target: COUP transcription factor 2 (Homo sapiens, UniProt P24468); test: Luminescence-based cell-based high throughput dose response assay to identify inhibitors of COUP-TFII (NR2F2).; format: functional;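 also: HEK293 cells transiently cotransfected with COUP-TFII expression vector and reporter; luciferase reporter luminescence driven by COUP-TFII from the pX2-168 reporter plasmid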
# Jurkat = test: blockers of NF-kB activation in T cells – Jurkat, luciferase reporter, luminescence, B- and T-cell, dose response (AID 489004); format: functional, cell-based; details: Homo sapiens;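 also: NF-kB luciferase reporter Jurkat cells stimulated with PMA plus ionomycin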
# INS1 = test: INS-1E survival protection against cytokine death – cell-based, luminescence, retest, dose response (AID 449756); format: functional; details: Rattus norvegicus;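 also: cell death triggered by IL-1 beta plus TNF-alpha plus IFN-gamma mixture; protective hits raise ATP signal compared with cytokine alone wells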
# Hexokinase HKDC1 [3] = target: T1, Hexokinase HKDC1 (Homo sapiens, UniProt Q2TB90); test: inhibition of HKDC1 glucose phosphorylation – biochemical, W721R variant, dose response (AID 504729); format: functional
# T1 sequence (Q2TB90 whole entry): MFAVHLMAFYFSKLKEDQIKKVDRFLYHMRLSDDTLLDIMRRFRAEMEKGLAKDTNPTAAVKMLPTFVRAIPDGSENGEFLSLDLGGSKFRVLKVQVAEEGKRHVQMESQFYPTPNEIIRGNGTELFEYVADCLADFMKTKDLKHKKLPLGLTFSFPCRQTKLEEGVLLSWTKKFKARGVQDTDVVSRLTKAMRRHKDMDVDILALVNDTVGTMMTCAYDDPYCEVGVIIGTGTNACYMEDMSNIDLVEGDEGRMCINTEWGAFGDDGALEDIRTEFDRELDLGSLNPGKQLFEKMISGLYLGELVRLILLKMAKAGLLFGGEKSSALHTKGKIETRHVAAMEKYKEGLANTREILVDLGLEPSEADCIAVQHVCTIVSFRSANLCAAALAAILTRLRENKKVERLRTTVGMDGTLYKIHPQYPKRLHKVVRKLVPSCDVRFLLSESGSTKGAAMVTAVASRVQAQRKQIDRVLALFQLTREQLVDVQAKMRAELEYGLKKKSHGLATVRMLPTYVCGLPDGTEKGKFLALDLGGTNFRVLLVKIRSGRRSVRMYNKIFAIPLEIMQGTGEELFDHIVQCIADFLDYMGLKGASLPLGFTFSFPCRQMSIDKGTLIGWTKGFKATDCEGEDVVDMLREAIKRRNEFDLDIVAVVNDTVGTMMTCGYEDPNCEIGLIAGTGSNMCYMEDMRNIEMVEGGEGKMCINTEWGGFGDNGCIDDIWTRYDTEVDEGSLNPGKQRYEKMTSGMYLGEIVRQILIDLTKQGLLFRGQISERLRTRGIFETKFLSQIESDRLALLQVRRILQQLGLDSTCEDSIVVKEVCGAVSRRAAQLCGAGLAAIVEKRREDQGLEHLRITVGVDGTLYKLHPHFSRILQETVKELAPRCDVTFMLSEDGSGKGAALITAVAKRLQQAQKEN
# Hexokinase HKDC1 [4] = target: T1, Hexokinase HKDC1; test: SAR analysis of small molecule inhibitors of hexokinase domain containing I (HKDC1). [Related pubchem assays (depositor defined):AID493160, AID493190]; format: functional
# [5] = target: Eukaryotic translation initiation factor 4E (Mus musculus, UniProt P63073); test: blockers of eIF4G binding by eIF4E – biochemical, TR-FRET, dose response (AID 855); format: functional;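 also: potency for disrupting eIF4E binding to eIF4GI seen as loss of FRET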
# [6] = target: T2, Lysine-specific demethylase 4C (Homo sapiens, UniProt Q9H3R0); test: inhibition of JMJD2C H3K9me3 demethylation – biochemical, DELFIA europium, cherry-picked samples, dose response (AID 488835); format: functional
# T2 sequence (Q9H3R0 whole entry): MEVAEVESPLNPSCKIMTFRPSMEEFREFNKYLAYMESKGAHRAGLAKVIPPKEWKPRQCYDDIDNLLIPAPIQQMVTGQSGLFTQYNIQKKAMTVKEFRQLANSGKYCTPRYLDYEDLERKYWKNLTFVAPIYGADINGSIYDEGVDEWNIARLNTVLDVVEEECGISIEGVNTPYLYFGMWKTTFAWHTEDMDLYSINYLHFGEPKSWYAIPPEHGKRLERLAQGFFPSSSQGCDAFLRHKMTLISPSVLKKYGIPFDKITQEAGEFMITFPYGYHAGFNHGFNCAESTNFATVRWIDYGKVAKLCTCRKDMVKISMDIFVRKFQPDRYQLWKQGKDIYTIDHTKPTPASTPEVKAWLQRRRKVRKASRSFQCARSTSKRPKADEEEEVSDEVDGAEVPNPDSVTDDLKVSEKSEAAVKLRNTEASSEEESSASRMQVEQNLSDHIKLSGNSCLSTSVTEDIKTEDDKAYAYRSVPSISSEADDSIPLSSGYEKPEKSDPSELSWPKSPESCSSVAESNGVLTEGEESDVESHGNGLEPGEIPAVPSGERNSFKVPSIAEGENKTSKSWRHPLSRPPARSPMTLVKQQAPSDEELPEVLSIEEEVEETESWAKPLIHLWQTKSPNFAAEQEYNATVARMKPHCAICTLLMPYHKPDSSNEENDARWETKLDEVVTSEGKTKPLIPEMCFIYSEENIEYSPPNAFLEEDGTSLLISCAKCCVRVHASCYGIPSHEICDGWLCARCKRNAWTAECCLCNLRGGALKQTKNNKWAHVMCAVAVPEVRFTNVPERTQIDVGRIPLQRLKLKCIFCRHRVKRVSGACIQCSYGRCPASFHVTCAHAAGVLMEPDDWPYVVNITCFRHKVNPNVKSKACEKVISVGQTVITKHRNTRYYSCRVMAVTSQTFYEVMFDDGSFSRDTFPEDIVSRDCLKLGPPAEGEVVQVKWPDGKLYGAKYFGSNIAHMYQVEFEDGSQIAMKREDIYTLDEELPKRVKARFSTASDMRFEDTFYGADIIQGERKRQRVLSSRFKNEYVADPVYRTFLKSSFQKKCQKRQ
# Hexokinase-1 = Hexokinase-1 (Homo sapiens, UniProt P19367); test: SAR analysis of small molecule inhibitors of hexokinase domain containing I (HKDC1) in the hexokinase 1 selectivity assay. [Related pubchem assays (depositor defined):AID493160, AID493190]; format: functional
# [7] = target: Induced myeloid leukemia cell differentiation protein Mcl-1 (Homo sapiens, UniProt Q07820); format: functional
# HEK293 [8] = test: cells; details: Homo sapiens
# HEK293 [9] = test: cells; details: Homo sapiens; remark: listed apart in the source
# [10] = MIN6 cell viability loss – mouse insulinoma, cytotoxicity control, dose response (AID 2122); format: functional;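 also: confirmatory high-throughput counterscreen run to flag cytotoxic compounds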
# [11] = target: T3, Rac GTPase-activating protein 1 (Homo sapiens, UniProt Q9H0H5); test: blockers of MgcRacGAP-driven Rac1 GTP hydrolysis – biochemical, ADP Hunter fluorescence, primary and confirmatory, confirmation (AID 624330); format: functional
# T3 sequence (Q9H0H5 whole entry): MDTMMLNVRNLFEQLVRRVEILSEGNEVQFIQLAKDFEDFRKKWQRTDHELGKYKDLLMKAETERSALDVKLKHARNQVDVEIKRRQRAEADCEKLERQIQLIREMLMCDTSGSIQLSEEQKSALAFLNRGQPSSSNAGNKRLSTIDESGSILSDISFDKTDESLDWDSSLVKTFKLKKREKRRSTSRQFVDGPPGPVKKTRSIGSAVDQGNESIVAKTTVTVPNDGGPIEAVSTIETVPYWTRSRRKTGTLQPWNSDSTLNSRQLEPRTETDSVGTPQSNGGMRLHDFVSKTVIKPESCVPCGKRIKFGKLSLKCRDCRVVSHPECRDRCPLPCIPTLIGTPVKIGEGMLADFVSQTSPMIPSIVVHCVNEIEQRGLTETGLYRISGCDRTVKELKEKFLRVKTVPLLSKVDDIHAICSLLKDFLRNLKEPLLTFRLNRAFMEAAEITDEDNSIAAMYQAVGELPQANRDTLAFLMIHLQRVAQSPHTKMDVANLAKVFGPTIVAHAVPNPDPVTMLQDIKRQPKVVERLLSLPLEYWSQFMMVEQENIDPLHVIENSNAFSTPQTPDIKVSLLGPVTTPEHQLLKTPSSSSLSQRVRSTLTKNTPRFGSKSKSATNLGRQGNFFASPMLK
# [12] = decrease of insulin promoter-GFP reporter – imaging, high-content screening, mouse beta cells (AID 1628); format: functional; details: MIN6
# H4 = test: Luminescence Cell-Based Dose Response HTS to Identify Activators of 5'UTR Stem-Loop Driven Prion Protein mRNA Translation in H4 Neuroglioblastoma Cells. [Related pubchem assays: 1829 (Project Summary), 1814 (Primary HTS)]; format: functional; details: Homo sapiens
# HeLa = test: ATP-based viability loss in HeLa cells – cell-based, CellTiter-Glo luminescence, cherry-pick samples, cytotoxicity control for MITF activator project, dose response (AID 540259); format: functional; details: Homo sapiens
# [13] = Luminescence Cell-Based Dose Response HTS to Identify Activators of Luciferase Translation or Activity in H4 […] Cells. [Related pubchem assays: 1829 (Project Summary), 1814 (Primary HTS)]; format: functional
# [14] = Luminescence Cell-Based Dose Confirmation HTS to Identify Activators of 5'UTR Stem-Loop Driven Alpha-Synuclein mRNA Translation in H4 Neuroglioblastoma Cells. [Related pubchem assays: 1829 (Project Summary), 1814 (Primary HTS)]; format: functional
# [15] = Luminescence Cell-Based Dose Retest to Confirm Inhibitors of Cancer Stem Cells. [Related pubchem assays (depositor defined):AID2717, AID2721]; format: functional; details: Homo sapiens
# [16] = viability loss of HMLE_sh_eGFP cells – cell-based, luminescence, counter-screen for HMLE_sh_ECad selective toxicity project, dose response (AID 463074); format: functional, Homo sapiens;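 also: HMLE human mammary epithelial cells expressing control shRNA against eGFP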
# [17] = target: Dual specificity protein kinase CLK1 (Homo sapiens, UniProt P49759); test: inhibition of human CLK1 activity – biochemical, cherry-picked samples, selectivity assay for Dyrk1A inhibitor project, dose response (AID 588811)
# [18] = target: Dual specificity tyrosine-phosphorylation-regulated kinase 1A (Rattus norvegicus, UniProt Q63470); format: biochemical, Homo sapiens
# [19] = target: Type-1 angiotensin II receptor (Homo sapiens, UniProt P30556); test: antagonism of angiotensin II type 1 receptor – cell-based, uHTS hits, selectivity assay for APJ receptor antagonist project, dose response (AID 463214); format: functional;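 also: antagonist potency against angiotensin II stimulated AT1 response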
# Beta-galactosidase = Beta-galactosidase (Escherichia coli, UniProt Q8VNN2); test: PubChem AID 485352; format: functional
# A-375 = test: MITF: Counter assay: A375 proliferation Measured in Cell-Based System Using Plate Reader - 2084-03_Inhibitor_Dose_DryPowder_Activity. [Related pubchem assays (depositor defined):AID488944]; format: functional; details: Homo sapiens
# Genome polyprotein = Genome polyprotein (dengue virus type 2, UniProt P29990); test: flavivirus cap methylation enzyme inhibition – biochemical, confirmation dose response, primary screen (AID 588689); format: functional
# [20] = target: T4, Microphthalmia-associated transcription factor (Homo sapiens, UniProt O75030); test: reducers of TRPM1 reporter luminescence, concentration series – cell-based, SK-MEL-5, cherry-picked, set 3, MITF inhibitor project, dose response (AID 493073); format: functional;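 also: SK-MEL-5 melanoma cells with luciferase driven by the MITF target TRPM1 promoter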
# T4 sequence (O75030 whole entry): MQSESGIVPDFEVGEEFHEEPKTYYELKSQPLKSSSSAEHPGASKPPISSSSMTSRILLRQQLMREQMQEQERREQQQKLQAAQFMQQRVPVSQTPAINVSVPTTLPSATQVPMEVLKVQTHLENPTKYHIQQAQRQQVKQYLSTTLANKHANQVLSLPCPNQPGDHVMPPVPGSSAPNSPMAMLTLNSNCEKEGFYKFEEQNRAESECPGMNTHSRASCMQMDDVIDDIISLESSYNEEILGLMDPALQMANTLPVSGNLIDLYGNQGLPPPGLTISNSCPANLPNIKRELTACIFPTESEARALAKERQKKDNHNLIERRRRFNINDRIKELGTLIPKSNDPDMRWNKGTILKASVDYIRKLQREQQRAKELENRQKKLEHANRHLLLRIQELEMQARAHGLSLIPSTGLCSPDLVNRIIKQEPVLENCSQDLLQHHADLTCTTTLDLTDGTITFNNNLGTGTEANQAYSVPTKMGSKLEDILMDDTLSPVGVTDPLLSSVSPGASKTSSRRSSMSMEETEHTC
# Large T antigen = Large T antigen (Simian virus 40, UniProt P03070); format: functional, Betapolyomavirus macacae;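 also: Confirmatory-stage PubChem screen for compounds that inhibit SV40 T antigen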
# [21] = target: Heat shock protein HSP 90-alpha (Homo sapiens, UniProt P07900); format: functional, organism-based
# Vero = test: viability of Vero cells under compound – cytotoxicity control for flavivirus capping enzyme inhibitors (AID 588742); format: functional; details: Chlorocebus sabaeus
# Sequence of Dual specificity protein kinase CLK1 (P49759 whole entry): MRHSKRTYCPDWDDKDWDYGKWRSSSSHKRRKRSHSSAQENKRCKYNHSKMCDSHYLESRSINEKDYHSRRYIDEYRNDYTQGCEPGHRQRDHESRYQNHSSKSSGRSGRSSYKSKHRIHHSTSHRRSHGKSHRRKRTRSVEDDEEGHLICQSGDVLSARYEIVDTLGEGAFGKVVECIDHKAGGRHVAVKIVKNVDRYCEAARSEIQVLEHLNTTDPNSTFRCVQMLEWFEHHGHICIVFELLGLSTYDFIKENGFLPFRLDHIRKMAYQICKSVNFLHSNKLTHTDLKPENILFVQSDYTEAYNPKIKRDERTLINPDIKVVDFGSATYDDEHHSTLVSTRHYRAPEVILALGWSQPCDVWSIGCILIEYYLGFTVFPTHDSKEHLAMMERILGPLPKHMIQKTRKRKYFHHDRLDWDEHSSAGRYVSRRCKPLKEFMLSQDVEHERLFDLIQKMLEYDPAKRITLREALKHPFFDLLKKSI
# Sequence of Induced myeloid leukemia cell differentiation protein Mcl-1 (Q07820 whole entry): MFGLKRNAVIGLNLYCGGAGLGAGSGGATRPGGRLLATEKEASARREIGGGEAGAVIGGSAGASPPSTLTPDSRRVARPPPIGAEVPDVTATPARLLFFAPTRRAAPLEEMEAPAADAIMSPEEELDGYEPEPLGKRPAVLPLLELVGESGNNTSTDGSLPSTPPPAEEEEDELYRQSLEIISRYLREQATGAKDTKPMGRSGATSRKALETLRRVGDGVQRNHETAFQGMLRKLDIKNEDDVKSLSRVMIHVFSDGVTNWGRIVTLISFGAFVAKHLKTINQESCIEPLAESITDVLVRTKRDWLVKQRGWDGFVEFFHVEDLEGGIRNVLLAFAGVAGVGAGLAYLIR
# Sequence of Beta-galactosidase (Q8VNN2 whole entry): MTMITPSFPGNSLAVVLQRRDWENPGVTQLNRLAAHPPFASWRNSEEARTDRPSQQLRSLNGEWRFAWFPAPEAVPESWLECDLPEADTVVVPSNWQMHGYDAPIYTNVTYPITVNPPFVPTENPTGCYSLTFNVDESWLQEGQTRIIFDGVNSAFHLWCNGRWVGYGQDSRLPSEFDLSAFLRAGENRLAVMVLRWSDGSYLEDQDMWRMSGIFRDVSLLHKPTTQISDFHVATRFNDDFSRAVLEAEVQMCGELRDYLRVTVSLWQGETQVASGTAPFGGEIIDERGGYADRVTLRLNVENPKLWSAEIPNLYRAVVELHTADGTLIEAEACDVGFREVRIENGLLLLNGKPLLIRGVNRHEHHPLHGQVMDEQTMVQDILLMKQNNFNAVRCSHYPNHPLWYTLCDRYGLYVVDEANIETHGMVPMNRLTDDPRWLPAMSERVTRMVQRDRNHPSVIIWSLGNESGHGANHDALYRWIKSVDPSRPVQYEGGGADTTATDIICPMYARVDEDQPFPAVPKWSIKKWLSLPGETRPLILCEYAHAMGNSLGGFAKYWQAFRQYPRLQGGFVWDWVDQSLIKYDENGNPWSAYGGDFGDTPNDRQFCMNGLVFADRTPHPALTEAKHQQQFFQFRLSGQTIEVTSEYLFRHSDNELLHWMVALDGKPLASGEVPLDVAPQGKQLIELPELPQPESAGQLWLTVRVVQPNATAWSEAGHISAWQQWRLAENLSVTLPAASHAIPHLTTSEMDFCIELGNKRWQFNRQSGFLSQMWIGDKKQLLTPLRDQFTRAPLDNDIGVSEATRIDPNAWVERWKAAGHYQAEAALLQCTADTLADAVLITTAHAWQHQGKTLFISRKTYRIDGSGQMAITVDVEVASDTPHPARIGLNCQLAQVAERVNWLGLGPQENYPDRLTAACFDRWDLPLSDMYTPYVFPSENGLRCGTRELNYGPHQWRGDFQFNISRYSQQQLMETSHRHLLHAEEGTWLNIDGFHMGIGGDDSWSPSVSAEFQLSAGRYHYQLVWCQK
# Sequence of Genome polyprotein (P29990 2492-3391 limits assumed): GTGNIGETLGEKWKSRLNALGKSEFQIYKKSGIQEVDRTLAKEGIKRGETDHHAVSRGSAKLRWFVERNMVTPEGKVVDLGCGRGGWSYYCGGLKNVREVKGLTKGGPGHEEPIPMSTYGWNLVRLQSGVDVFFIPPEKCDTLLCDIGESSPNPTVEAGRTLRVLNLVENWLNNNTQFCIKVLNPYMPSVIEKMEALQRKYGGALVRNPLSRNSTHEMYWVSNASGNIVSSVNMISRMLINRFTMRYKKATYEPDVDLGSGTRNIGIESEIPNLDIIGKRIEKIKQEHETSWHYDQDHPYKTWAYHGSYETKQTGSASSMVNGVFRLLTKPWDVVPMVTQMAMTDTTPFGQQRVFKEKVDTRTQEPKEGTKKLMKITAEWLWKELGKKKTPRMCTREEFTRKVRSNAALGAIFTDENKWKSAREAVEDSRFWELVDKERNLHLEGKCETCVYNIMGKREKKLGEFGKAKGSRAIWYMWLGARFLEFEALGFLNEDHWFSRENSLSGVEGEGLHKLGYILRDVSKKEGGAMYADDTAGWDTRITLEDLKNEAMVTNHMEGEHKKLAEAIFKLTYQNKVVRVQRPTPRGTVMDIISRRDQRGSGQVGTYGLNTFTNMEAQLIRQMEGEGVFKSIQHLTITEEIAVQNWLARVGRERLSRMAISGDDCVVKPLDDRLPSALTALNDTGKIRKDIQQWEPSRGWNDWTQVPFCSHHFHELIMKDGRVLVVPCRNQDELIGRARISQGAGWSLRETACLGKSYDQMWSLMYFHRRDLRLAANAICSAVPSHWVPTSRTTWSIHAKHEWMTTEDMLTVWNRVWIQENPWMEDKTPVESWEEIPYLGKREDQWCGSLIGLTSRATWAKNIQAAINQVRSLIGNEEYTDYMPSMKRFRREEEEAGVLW
# Sequence of Large T antigen (P03070 whole entry): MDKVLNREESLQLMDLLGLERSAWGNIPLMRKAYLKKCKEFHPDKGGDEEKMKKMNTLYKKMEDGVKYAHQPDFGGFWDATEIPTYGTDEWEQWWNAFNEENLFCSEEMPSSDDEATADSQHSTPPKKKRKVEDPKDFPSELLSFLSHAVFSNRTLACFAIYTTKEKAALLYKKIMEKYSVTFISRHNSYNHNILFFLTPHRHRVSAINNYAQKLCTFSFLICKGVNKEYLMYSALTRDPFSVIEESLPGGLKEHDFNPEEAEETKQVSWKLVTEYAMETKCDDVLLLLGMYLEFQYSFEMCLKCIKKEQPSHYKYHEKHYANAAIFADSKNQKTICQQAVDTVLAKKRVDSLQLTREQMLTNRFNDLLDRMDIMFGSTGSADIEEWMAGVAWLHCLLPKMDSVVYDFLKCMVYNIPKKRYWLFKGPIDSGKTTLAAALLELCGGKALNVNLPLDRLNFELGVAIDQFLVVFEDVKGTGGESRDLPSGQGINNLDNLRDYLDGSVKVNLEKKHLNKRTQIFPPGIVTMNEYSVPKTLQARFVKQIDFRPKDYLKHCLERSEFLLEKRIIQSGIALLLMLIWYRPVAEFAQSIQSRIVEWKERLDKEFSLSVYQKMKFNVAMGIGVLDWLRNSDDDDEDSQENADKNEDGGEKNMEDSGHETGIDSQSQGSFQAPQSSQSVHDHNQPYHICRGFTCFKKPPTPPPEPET
# Sequence of Type-1 angiotensin II receptor (P30556 whole entry): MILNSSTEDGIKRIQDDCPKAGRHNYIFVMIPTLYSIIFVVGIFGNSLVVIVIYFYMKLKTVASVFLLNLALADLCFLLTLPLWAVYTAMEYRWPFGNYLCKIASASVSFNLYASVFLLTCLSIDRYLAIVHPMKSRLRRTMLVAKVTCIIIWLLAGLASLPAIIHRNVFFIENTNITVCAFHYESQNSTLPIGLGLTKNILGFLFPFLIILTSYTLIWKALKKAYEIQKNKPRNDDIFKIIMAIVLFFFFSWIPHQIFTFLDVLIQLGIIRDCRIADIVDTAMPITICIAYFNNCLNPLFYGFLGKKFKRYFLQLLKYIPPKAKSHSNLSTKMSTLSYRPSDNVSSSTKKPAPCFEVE
# Sequence of Eukaryotic translation initiation factor 4E (P63073 whole entry): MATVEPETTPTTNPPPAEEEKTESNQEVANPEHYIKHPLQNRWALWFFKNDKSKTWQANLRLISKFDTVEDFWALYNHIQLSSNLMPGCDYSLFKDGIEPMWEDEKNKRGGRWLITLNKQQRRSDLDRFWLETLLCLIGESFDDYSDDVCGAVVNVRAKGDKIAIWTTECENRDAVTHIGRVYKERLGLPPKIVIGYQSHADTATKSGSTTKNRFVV
# Sequence of Hexokinase-1 (P19367 whole entry, the tested form may be a part): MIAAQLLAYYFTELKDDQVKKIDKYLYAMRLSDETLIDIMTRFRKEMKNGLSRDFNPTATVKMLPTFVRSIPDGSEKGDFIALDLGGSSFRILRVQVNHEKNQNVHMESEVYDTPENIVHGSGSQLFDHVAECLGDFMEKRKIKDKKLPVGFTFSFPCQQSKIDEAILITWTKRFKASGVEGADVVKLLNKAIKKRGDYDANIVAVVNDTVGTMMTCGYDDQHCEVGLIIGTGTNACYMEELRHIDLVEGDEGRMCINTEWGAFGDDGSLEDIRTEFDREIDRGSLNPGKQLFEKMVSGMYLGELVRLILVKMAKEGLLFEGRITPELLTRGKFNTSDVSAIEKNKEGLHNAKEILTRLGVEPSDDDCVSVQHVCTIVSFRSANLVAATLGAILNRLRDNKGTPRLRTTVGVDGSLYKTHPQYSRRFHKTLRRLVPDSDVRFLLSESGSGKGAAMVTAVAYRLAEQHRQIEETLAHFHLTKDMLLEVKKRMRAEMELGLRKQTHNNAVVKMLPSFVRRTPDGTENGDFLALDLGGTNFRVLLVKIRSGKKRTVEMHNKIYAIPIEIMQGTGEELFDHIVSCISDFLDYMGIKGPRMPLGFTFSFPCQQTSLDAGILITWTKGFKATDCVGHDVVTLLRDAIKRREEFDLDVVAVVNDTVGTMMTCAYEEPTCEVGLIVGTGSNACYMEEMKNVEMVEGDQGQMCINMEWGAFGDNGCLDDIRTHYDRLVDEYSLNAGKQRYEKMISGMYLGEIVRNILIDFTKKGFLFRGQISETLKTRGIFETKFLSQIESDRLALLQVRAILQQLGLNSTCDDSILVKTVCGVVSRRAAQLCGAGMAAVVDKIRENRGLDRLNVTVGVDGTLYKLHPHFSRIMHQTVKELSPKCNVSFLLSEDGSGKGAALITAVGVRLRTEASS
smiles,measurement,setting,value
CCCCCCn1ccc(=N)cc1,IC50,[1],13 µM (active)
same,IC50,[2],15.8 µM (inactive)
same,IC50,Jurkat,> 80 µM (inactive)
same,AC50,INS1,3.13 µM (active)
Cc1ccc(C)c(S(=O)(=O)Nc2cc(SCC(=O)O)c(O)c3ccccc23)c1,IC50,Hexokinase HKDC1 [3],2.96 µM (active)
same,IC50,Hexokinase HKDC1 [4],10.2 µM (active)
same,IC50,[5],> 64 µM (inactive)
same,AC50,[6],4.94 µM (active)
same,IC50,Hexokinase-1,> 80 µM (inactive)
same,IC50,[7],13.8 µM (active)
same,AC50,INS1,4.28 µM (active)
Nc1ccccc1Nc1cccc(C(F)(F)F)c1,EC50,HEK293 [8],> 59.6 µM (inactive)
same,EC50,HEK293 [9],> 59.6 µM (inactive)
same,IC50,[10],5.09 µM (active)
same,IC50,[11],89 µM (active)
same,IC50,[12],4.45 µM (active)
COC(=O)c1ccc(N2CCN(c3ccccc3)CC2)nc1,EC50,H4,0.114 µM (active)
same,AC50,HeLa,53.8 µM (active)
same,EC50,[13],> 120 µM (not active)
same,EC50,[14],> 120 µM (not active)
COc1cc(NC(=O)c2cc(C)on2)cc(C(=O)Nc2cccc(C(F)(F)F)c2)c1,AC50,[15],11.6 µM (active)
same,AC50,[16],24.2 µM (active)
Cc1nc(CNc2ncnc3ccc(-c4ccc5c(c4)OCO5)cc23)cs1,AC50,[17],0.0354 µM (active)
O=C(Nc1ccc2c[nH]nc2c1)c1ccccc1F,EC50,H4,> 120 µM (not active)
same,AC50,[18],20.8 µM (active)
O=C(CCC(=O)OCC(=O)c1cccc([N+](=O)[O-])c1)NC1CCCCC1,IC50,[19],25.2 µM (not active)
same,EC50,Beta-galactosidase,> 40 µM (inactive)
O=C(O)/C=C/C(=O)c1ccc2c(c1)CCc1ccccc1-2,AC50,A-375,35 µM (active)
same,IC50,Genome polyprotein,22.9 µM (active)
same,AC50,[20],15 µM (active)
same,IC50,Large T antigen,34.5 µM (active)
same,AC50,[21],16.6 µM (active)
same,CC50,Vero,17.2 µM (active)

# Reference: ChEMBL document CHEMBL1201862, “PubChem BioAssay data set” (2004)
